In ChEMBL document CHEMBL3804797, “Discovery of Aryl Sulfonamides as Isoform-Selective Inhibitors of NaV1.7 with Efficacy in Rodent Pain Models” (ACS Med Chem Lett, 2016):
In brackets after ≈: the same amount, converted by molar mass.

How the values were obtained:
[1] = molecular target: Cytochrome P450 2C9 (Homo sapiens, UniProt P11712); assay: Inhibition of CYP2C9 in human liver microsomes using warfarin as substrate after 30 mins by LC/MS/MS analysis; assay type: ADME
[2] = Ratio of drug uptake in brain to plasma in Sprague-Dawley rat at 20 mg/kg, ip by UHPLC analysis; assay type: ADME, organism-based; details: read-out: BPR
[3] = Half life in Sprague-Dawley rat at 1 mg/kg, iv; assay type: ADME, organism-based; details: in vivo
[4] = molecular target: T1, Cytochrome P450 1A2 (Homo sapiens, UniProt P05177); assay: Inhibition of CYP1A2 in human liver microsomes using phenacetin as substrate after 30 mins by LC/MS/MS analysis; assay type: ADME
T1 sequence (P05177 whole entry): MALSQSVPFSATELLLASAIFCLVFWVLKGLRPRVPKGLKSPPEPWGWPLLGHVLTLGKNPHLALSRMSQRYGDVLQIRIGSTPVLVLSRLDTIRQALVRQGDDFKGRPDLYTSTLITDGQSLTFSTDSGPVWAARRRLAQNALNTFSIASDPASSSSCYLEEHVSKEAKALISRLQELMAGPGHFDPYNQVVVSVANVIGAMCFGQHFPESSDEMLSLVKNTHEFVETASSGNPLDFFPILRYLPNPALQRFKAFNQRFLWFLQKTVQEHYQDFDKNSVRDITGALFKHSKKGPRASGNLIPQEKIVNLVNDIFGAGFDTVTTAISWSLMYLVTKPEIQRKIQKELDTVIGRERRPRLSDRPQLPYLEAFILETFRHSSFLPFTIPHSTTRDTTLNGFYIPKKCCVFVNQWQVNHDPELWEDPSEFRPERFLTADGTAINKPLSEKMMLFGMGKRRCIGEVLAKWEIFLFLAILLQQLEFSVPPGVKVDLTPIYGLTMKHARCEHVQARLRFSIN

[5] = molecular target: Cytochrome P450 3A4 (Homo sapiens, UniProt P08684); assay: Inhibition of CYP3A4 in human liver microsomes using testosterone/midazolam as substrate after 30 mins by LC/MS/MS analysis; assay type: ADME
[6] = Plasma protein binding in rat at 10 uM incubated for 20 hrs by HPLC-MS/MS analysis; assay type: ADME, cell-free; details: read-out: PPB (converted)
[7] = molecular target: Sodium channel protein type 2 subunit alpha (Homo sapiens, UniProt Q99250); assay: Inhibition of full length human Nav1.2 channel expressed in HEK cells co-expressing human sodium channel subunit beta1 at holding potential -35 mV by automated voltage clamp analysis; assay type: cell-based, HEK293
[8] = AUC (0 to infinity) in Sprague-Dawley rat at 1 mg/kg, iv; assay type: ADME, organism-based; set-up: dose 1 mg/kg, time infinity, route intravenous; details: in vivo
[9] = molecular target: Sodium channel protein type 9 subunit alpha (Mus musculus, UniProt Q62205); assay: Inhibition of Nav1.7 channel in mouse CAD cells by whole-cell patch clamp assay; assay type: cell-based
[10] = Apparent permeability from apical to basolateral side in MDCK1 cells at 10 uM incubated for 2 hrs; assay type: ADME, cell-based, Canis lupus familiaris; details: dog, MDCK
[11] = molecular target: T2, Sodium channel protein type 9 subunit alpha (Homo sapiens, UniProt Q15858); assay: Inhibition of full length human Nav1.7 channel expressed in HEK cells co-expressing human sodium channel subunit beta3 at -150 mV by manual voltage clamp analysis; assay type: cell-based, HEK293
[12] = Efflux ratio of apparent permeability from apical to basolateral side to basolateral to apical side in MDCK1 cells expressing human MDR1 at 10 uM; assay type: ADME, cell-based, Canis lupus familiaris; details: dog, mdck1, 10 µM
[13] = Plasma clearance in Sprague-Dawley rat at 1 mg/kg, iv; assay type: ADME, organism-based
[14] = Volume of distribution at steady state in Sprague-Dawley rat at 1 mg/kg, iv; assay type: ADME, organism-based; details: in vivo, read-out: Vdss
[15] = Cmax in Sprague-Dawley rat at 20 mg/kg, ip; assay type: ADME, organism-based; set-up: dose 20 mg/kg, route intraperitoneal; details: in vivo
[16] = molecular target: Sodium channel protein type 1 subunit alpha (Homo sapiens, UniProt P35498); assay: Inhibition of full length human Nav1.1 channel expressed in HEK cells co-expressing human sodium channel subunit beta1 at holding potential -40 mV by automated voltage clamp analysis; assay type: cell-based, HEK293
[17] = molecular target: Cytochrome P450 2D6 (Homo sapiens, UniProt P10635); assay: Inhibition of CYP2D6 in human liver microsomes using dextromethorphan as substrate after 30 mins by LC/MS/MS analysis; assay type: ADME
[18] = Dissociation constant, pKa of the compound at 100 uM by UV-spectrophotometric titration method; assay type: physicochemical
[19] = molecular target: T2, Sodium channel protein type 9 subunit alpha; assay: Inhibition of full length human Nav1.7 channel expressed in HEK cells co-expressing human sodium channel subunit beta1 at holding potential -60 mV by automated voltage clamp analysis; assay type: cell-based, HEK293
[20] = molecular target: Sodium channel protein type 9 subunit alpha (Rattus norvegicus, UniProt O08562); assay: Inhibition of rat Nav1.7 channel by automated voltage clamp analysis
[21] = AUC (0 to infinity) in Sprague-Dawley rat at 20 mg/kg, ip; assay type: ADME, organism-based; set-up: dose 20 mg/kg, route intraperitoneal, time infinity; details: in vivo
[22] = Kinetic solubility of compound at pH 7.2; assay type: physicochemical; details: buffer, read-out: Kinetic_solubility
[23] = Tmax in Sprague-Dawley rat at 20 mg/kg, ip; assay type: ADME, organism-based; details: in vivo
[24] = Cmax in Sprague-Dawley rat at 1 mg/kg, iv; assay type: ADME, organism-based; set-up: dose 1 mg/kg, route intravenous; details: in vivo
[25] = molecular target: Sodium channel protein type 5 subunit alpha (Homo sapiens, UniProt Q14524); assay: Inhibition of full length human Nav1.5 channel expressed in HEK cells co-expressing human sodium channel subunit beta1 at holding potential -60 mV by automated voltage clamp analysis; assay type: cell-based, HEK293
[26] = Half life in Sprague-Dawley rat at 20 mg/kg, ip; assay type: ADME, organism-based; details: in vivo
[27] = molecular target: Sodium channel protein type 8 subunit alpha (Homo sapiens, UniProt Q9UQD0); assay: Inhibition of full length human Nav1.6 channel expressed in HEK cells co-expressing human sodium channel subunit beta1 at holding potential -35 mV by automated voltage clamp analysis; assay type: cell-based, HEK293
[28] = molecular target: hERG (KCNH2) (Homo sapiens, UniProt Q12809); assay: Displacement of [3H] astemizole from human ERG channel at 5 uM; details: probe [3H] astemizole

T2 sequence (Q15858 whole entry): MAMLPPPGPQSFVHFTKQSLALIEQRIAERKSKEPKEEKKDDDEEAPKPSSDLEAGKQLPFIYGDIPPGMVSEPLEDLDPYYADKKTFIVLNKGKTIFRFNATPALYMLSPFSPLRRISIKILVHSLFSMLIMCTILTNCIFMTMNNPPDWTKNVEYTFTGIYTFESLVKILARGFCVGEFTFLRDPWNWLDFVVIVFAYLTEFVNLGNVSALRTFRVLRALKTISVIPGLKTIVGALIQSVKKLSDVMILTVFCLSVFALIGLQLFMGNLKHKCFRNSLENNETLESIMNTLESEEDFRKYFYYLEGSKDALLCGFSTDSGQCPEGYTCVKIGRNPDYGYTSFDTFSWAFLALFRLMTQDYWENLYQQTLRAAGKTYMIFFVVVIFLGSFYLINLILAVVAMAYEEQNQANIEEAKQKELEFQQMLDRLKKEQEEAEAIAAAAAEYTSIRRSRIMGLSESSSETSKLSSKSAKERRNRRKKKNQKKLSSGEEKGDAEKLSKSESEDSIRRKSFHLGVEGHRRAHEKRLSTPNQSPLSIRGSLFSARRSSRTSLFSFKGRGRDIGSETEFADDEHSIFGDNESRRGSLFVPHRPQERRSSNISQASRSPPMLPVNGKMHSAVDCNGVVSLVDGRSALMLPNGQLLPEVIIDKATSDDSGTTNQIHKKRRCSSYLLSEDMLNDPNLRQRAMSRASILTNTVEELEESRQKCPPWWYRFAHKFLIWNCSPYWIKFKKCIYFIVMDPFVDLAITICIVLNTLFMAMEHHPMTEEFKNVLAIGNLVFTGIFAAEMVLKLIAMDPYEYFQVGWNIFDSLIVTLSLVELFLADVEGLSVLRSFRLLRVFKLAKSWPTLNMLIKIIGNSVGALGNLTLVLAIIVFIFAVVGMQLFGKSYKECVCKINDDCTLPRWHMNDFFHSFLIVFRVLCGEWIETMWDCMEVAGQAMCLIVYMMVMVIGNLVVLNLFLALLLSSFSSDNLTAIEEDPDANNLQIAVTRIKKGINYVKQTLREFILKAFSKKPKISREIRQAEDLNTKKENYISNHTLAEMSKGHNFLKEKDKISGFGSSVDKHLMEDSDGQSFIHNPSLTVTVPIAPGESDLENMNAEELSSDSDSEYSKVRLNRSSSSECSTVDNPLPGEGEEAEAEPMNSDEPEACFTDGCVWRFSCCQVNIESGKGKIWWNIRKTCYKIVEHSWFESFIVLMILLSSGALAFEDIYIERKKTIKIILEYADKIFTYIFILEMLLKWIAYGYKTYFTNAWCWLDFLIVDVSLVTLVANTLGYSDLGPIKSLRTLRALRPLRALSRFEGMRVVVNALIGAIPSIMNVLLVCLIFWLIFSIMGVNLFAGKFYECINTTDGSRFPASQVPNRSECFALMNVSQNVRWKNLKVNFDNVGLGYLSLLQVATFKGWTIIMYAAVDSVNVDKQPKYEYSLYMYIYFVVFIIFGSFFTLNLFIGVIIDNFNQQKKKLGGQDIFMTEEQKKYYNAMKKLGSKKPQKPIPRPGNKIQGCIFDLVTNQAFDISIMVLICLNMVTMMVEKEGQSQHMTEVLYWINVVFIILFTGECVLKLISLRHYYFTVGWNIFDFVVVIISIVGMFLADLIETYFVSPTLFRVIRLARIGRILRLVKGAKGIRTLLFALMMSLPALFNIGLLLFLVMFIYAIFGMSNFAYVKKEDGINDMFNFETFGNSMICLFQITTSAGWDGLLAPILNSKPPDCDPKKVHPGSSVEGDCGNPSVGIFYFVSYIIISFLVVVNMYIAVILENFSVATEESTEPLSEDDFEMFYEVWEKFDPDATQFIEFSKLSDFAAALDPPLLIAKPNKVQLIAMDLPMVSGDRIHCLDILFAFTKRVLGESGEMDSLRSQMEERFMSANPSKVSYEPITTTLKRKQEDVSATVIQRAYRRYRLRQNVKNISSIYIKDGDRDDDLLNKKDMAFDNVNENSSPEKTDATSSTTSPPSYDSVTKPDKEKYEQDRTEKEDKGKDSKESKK
Sequence of Cytochrome P450 3A4 (P08684 whole entry): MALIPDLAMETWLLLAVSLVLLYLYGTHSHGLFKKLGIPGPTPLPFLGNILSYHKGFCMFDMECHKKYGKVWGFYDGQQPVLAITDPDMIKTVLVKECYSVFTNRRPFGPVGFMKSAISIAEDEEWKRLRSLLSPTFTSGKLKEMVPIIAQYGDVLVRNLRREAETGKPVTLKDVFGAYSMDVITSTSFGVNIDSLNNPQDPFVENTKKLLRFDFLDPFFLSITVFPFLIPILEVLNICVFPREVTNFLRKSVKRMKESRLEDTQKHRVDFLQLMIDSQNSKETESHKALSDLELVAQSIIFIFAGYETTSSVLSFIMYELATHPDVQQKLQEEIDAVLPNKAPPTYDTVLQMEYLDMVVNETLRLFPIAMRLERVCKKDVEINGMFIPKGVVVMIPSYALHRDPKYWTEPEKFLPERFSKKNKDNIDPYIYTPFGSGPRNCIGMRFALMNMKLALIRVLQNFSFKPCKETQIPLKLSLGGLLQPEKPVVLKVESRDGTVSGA
Sequence of Cytochrome P450 2D6 (P10635 whole entry): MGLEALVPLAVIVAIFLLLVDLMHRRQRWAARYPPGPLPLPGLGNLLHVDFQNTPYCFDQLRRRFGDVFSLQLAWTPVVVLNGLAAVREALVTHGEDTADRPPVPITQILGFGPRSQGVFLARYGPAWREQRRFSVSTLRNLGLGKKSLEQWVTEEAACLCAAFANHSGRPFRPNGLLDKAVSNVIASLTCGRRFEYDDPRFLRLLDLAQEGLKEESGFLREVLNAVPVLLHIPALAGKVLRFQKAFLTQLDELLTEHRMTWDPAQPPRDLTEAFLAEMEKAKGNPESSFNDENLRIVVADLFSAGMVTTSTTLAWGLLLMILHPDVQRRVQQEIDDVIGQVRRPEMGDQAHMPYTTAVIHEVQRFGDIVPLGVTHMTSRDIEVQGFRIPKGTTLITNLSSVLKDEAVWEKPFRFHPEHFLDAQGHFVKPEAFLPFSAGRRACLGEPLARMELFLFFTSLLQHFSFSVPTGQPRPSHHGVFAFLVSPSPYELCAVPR
Sequence of Sodium channel protein type 9 subunit alpha (Mus musculus, UniProt Q62205) (Q62205 whole entry): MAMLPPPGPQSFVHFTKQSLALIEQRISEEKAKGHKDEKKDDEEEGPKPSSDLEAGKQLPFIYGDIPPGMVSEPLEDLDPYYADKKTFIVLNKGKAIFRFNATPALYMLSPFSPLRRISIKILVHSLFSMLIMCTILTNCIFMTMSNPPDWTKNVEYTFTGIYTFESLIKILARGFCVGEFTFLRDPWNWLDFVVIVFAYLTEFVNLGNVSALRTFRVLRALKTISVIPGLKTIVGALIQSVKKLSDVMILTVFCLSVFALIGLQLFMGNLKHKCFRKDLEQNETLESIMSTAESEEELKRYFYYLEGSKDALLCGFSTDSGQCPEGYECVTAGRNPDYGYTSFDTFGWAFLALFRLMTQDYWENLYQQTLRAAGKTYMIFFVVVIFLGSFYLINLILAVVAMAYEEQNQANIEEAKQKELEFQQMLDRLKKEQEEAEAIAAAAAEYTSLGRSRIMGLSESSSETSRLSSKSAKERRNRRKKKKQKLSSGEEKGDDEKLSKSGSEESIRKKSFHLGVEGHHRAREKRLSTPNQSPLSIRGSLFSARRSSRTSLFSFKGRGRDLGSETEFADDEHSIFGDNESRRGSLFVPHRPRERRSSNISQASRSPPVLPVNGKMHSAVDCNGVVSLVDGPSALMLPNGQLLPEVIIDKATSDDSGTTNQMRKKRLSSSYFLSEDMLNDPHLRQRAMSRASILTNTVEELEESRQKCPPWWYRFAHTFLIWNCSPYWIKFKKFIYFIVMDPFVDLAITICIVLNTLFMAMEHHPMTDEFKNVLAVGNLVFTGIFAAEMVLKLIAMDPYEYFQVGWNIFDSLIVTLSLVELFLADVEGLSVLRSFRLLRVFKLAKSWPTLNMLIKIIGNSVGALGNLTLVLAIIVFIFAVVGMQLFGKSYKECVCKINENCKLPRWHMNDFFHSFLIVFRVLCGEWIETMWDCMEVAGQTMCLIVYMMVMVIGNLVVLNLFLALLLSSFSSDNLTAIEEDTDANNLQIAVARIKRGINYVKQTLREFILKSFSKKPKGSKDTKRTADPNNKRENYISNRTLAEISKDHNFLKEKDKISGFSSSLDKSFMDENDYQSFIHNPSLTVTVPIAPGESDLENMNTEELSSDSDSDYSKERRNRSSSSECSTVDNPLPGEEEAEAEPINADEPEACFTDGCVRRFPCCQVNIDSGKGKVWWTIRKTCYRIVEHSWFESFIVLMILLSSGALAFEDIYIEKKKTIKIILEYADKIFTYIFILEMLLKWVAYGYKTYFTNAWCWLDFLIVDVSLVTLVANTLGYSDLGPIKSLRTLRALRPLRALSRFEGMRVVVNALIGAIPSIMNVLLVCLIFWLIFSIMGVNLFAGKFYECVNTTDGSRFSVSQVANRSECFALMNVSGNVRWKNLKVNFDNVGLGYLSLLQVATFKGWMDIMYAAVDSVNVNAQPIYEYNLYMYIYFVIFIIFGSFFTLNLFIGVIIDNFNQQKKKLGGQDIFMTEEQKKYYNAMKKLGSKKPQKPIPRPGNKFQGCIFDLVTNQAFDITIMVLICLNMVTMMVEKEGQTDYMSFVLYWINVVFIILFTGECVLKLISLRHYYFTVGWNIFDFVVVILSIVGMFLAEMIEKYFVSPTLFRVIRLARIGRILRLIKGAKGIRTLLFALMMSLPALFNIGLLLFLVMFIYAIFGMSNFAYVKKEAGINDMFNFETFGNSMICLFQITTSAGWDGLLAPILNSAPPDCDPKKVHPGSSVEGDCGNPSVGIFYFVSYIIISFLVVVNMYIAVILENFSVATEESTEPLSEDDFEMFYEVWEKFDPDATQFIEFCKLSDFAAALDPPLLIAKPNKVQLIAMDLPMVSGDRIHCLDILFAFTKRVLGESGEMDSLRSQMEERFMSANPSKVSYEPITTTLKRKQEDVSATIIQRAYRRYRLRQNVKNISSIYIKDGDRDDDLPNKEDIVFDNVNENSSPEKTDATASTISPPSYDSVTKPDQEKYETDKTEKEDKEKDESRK

Nc1noc2ccc(-c3cc(Cl)ccc3Oc3cc(F)c(S(=O)(=O)Nc4ncns4)cc3F)cc12
IC50 [1]: 170 nM | Kp [2]: 0.019 | half-life [3]: 7.8 min | IC50 [4]: > 9000 nM | IC50 [5]: 77 nM | fraction unbound at 20 h, 10 µM [6]: 0.011 | IC50 [7]: 4.2 nM | AUC(0-inf) [8]: 0.18 µM·h | IC50 [9]: 0.2 nM | Papp A→B at 2 h, 10 µM [10]: 2.1 ×10⁻⁶ cm/s | IC50 [11]: 0.4 nM | Ratio [12]: 47 | clearance [13]: 177 mL/min/kg | Vd [14]: 1.4 L/kg | Cmax [15]: 5.3 µM | IC50 [16]: 3080 nM | IC50 [17]: > 9000 nM | pKa at 100 µM [18]: 3.2 | IC50 [19]: 0.4 nM | IC50 [20]: 26 nM | AUC(0-inf) [21]: 13.5 µM·h | solubility kinetic [22]: 121 µM (≈ 64.8 µg/mL) | Tmax [23]: 3.6 min | Cmax [24]: 2.9 µM | IC50 [25]: 1380 nM | half-life [26]: 132 min | IC50 [27]: 11 nM | inhibition at 5 µM [28]: < 11%
